Reference: patent US6737383B1, “Herbicidal oxadiazolidines” (priority 1999, dated 2004)

Legend:
purple nutsedge = assay: Test B pre/postemergence purple nutsedge; assay type: in vivo, Cyperus rotundus
Outline: (§1)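 Herbicidal effect was estimated by eye on a ten-point control scale after plants spent twelve to sixteen days in a greenhouse following soil or foliar treatment. Foliar sprays targeted plants at one to four leaves; all doses were formulated in a non-phytotoxic solvent with surfactant.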

surinam grass = assay: Test B pre/postemergence surinam grass; assay type: in vivo, Brachiaria decumbens
Outline: as §1

rice = assay: Test B flood test rice; assay type: in vivo, Oryza sativa
Outline: (§2)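 Read-out is a visual response score from 0 (no effect) to 10 (complete control), assigned by comparison with untreated controls. Treatment was applied at the 2-leaf stage, and plants stayed in the greenhouse for twelve to sixteen days before scoring.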

giant foxtail = assay: Test B pre/postemergence giant foxtail; assay type: in vivo, Setaria faberii
Outline: as §1

smallflower flatsedge = assay: Test B flood test smallflower flatsedge; assay type: in vivo, Cyperus difformis
Outline: as §2

crabgrass = assay: Test B pre/postemergence crabgrass; assay type: in vivo, Digitaria sanguinalis
Outline: as §1

velvetleaf = assay: Test B pre/postemergence velvetleaf; assay type: in vivo, Abutilon theophrasti
Outline: as §1

blackgrass = assay: Test B pre/postemergence blackgrass; assay type: in vivo, Alopecurus myosuroides
Outline: as §1

bedstraw = assay: Test B pre/postemergence bedstraw; assay type: in vivo, Galium aparine
Outline: as §1

morningglory = assay: Test B pre/postemergence morningglory; assay type: in vivo, Ipomoea hederacea
Outline: as §1

corn = assay: Test B pre/postemergence corn; assay type: in vivo, Zea mays
Outline: as §1

duck salad = assay: Test B flood test duck salad; assay type: in vivo, Heteranthera limosa
Outline: as §2

wheat = assay: Test B pre/postemergence wheat; assay type: in vivo, Triticum aestivum
Outline: as §1

rape = assay: Test B pre/postemergence rape; assay type: in vivo, Brassica napus
Outline: as §1

soybean = assay: Test B pre/postemergence soybean; assay type: in vivo, Glycine max
Outline: as §1

wild oat = assay: Test B pre/postemergence wild oat; assay type: in vivo, Avena fatua
Outline: as §1

[1] = Postemergence, Rate 125 g/ha, scale of 0 to 10 where 0 is no effect and 10 is complete control
[2] = Preemergence, Rate 125 g/ha, 0 is no effect, 10 is complete control
[3] = Preemergence, Rate 250 g/ha, scale 0 to 10, 0 is no effect, 10 is complete control
[4] = Preemergence, Rate 500 g/ha, scale 0 to 10 (0 no effect, 10 complete control)
[5] = Rate 62 g/ha, Postemergence, scale of 0 to 10 where 0 is no effect and 10 is complete control
[6] = Rate 250 g/ha, Postemergence, scale 0 to 10, 0 is no effect, 10 is complete control
[7] = Rate 500 g/ha, Postemergence, scale 0 to 10
[8] = Preemergence, Rate 62 g/ha, scale of 0 to 10 where 0 is no effect and 10 is complete control
[9] = Rate 62 g/ha, headed Pre-emergence (flood test species), scale 0 to 10 (0 no effect, 10 complete control)
[10] = Rate 125 g/ha, Pre-emergence, flood test species, scale 0 to 10 where 0 is no effect and 10 is complete control
[11] = Rate 250 g/ha, Pre-emergence, flood-test species, scale 0 to 10, 0 is no effect, 10 is complete control
[12] = Rate 500 g/ha, headed Pre-emergence (flood test species), scale 0 to 10 (0 no effect, 10 complete control)

## CCN(Cc1ccccc1)C(=O)n1oc(=O)n(C(C)C)c1=O [Compound 166]
Purple nutsedge; [1]
  Nutsedge plant response rating: 0
Purple nutsedge; [2]
  Nutsedge plant response rating (0 to 10 scale): 0
Purple nutsedge; [3]
  Nutsedge plant response rating: 0
Purple nutsedge; [4]
  Nutsedge plant response rating: 0
Purple nutsedge; [5]
  Nutsedge plant response rating: 0
Purple nutsedge; [6]
  Plant response rating, Nutsedge: 0
Purple nutsedge; [7]
  Nutsedge plant response rating: 0
Surinam grass; [1]
  B. signalgrass plant response rating: 0
Surinam grass; [8]
  B. signalgrass plant response rating: 0
Surinam grass; [2]
  B. signalgrass plant response rating (0 to 10 scale): 0
Surinam grass; [3]
  B. signalgrass plant response rating: 0
Surinam grass; [4]
  B. signalgrass plant response rating: 4
Surinam grass; [5]
  B. signalgrass plant response rating: 0
Surinam grass; [6]
  Plant response rating, B. signalgrass: 0
Surinam grass; Rate 500 g/ha, Postemergence, scale 0 to 10, 0 no effect, 10 complete control
  B. signalgrass plant response rating: 0
rice; [9]
  Rice plant response rating: 0
rice; [10]
  Rice plant response rating: 0
rice; [11]
  Rice plant response rating: 0
rice; [12]
  Plant response rating, Rice: 0
Giant foxtail; [1]
  Giant foxtail plant response rating: 0
Giant foxtail; [8]
  Giant foxtail plant response rating: 3
Giant foxtail; [2]
  Giant foxtail plant response rating (0 to 10 scale): 5
Giant foxtail; [3]
  Giant foxtail plant response rating: 5
Giant foxtail; [4]
  Giant foxtail plant response rating: 7
Giant foxtail; [5]
  Giant foxtail plant response rating: 0
Giant foxtail; [6]
  Plant response rating, Giant foxtail: 1
Giant foxtail; [7]
  Giant foxtail plant response rating: 4
Smallflower flatsedge; [9]
  S. Flatsedge plant response rating: 0
Smallflower flatsedge; [10]
  S. Flatsedge plant response rating: 0
Smallflower flatsedge; [11]
  S. Flatsedge plant response rating: 0
Smallflower flatsedge; Rate 500 g/ha, Pre-emergence, flood test species, scale 0 to 10 (0 no effect, 10 complete control)
  S. Flatsedge plant response rating: 0
crabgrass; [1]
  Crabgrass plant response rating: 1
crabgrass; [8]
  Crabgrass plant response rating: 4
crabgrass; [2]
  Crabgrass plant response rating (0 to 10 scale): 4
crabgrass; [3]
  Crabgrass plant response rating: 7
crabgrass; [4]
  Crabgrass plant response rating: 7
crabgrass; [5]
  Crabgrass plant response rating: 0
crabgrass; [6]
  Plant response rating, Crabgrass: 3
crabgrass; [7]
  Crabgrass plant response rating: 4
velvetleaf; [8]
  Velvetleaf plant response rating: 0
velvetleaf; [2]
  Velvetleaf plant response rating (0 to 10 scale): 0
velvetleaf; [3]
  Velvetleaf plant response rating: 5
velvetleaf; [4]
  Velvetleaf plant response rating: 6
velvetleaf; [6]
  Plant response rating, Velvetleaf: 0
velvetleaf; [7]
  Velvetleaf plant response rating: 0
blackgrass; [1]
  Blackgrass plant response rating: 4
blackgrass; [8]
  Blackgrass plant response rating: 0
blackgrass; [2]
  Blackgrass plant response rating (0 to 10 scale): 0
blackgrass; [3]
  Blackgrass plant response rating: 4
blackgrass; [4]
  Blackgrass plant response rating: 5
blackgrass; [5]
  Blackgrass plant response rating: 0
blackgrass; [6]
  Plant response rating, Blackgrass: 7
blackgrass; [7]
  Blackgrass plant response rating: 8
bedstraw; [1]
  Bedstraw plant response rating: 0
bedstraw; [8]
  Bedstraw plant response rating: 0
bedstraw; [2]
  Bedstraw plant response rating (0 to 10 scale): 0
bedstraw; [3]
  Bedstraw plant response rating: 0
bedstraw; [4]
  Bedstraw plant response rating: 0
bedstraw; [5]
  Bedstraw plant response rating: 0
bedstraw; [6]
  Plant response rating, Bedstraw: 1
bedstraw; [7]
  Bedstraw plant response rating: 5
morningglory; [1]
  Morningglory plant response rating: 1
morningglory; [8]
  Morningglory plant response rating: 0
morningglory; [2]
  Morningglory plant response rating (0 to 10 scale): 0
morningglory; [3]
  Morningglory plant response rating: 0
morningglory; [4]
  Morningglory plant response rating: 0
morningglory; [5]
  Morningglory plant response rating: 1
morningglory; [6]
  Plant response rating, Morningglory: 2
morningglory; [7]
  Morningglory plant response rating: 2
corn; [1]
  Corn plant response rating: 0
corn; [8]
  Corn plant response rating: 0
corn; [2]
  Corn plant response rating (0 to 10 scale): 0
corn; [3]
  Corn plant response rating: 0
corn; [4]
  Corn plant response rating: 0
corn; [5]
  Corn plant response rating: 0
corn; [6]
  Plant response rating, Corn: 0
corn; [7]
  Corn plant response rating: 0
Duck salad; [9]
  Ducksalad plant response rating: 0
Duck salad; [10]
  Ducksalad plant response rating: 0
Duck salad; [11]
  Ducksalad plant response rating: 0
Duck salad; [12]
  Plant response rating, Ducksalad: 0
wheat; [8]
  Wheat plant response rating: 0
wheat; [2]
  Wheat plant response rating (0 to 10 scale): 0
wheat; [3]
  Wheat plant response rating: 0
wheat; [4]
  Wheat plant response rating: 0
wheat; [6]
  Plant response rating, Wheat: 0
wheat; [7]
  Wheat plant response rating: 3
rape; [1]
  Rape plant response rating: 0
rape; [8]
  Rape plant response rating: 0
rape; [2]
  Rape plant response rating (0 to 10 scale): 0
rape; [3]
  Rape plant response rating: 0
rape; [4]
  Rape plant response rating: 0
rape; [5]
  Rape plant response rating: 0
rape; [6]
  Plant response rating, Rape: 0
soybean; [1]
  Soybean plant response rating: 0
soybean; [8]
  Soybean plant response rating: 0
soybean; [2]
  Soybean plant response rating (0 to 10 scale): 0
soybean; [3]
  Soybean plant response rating: 0
soybean; [4]
  Soybean plant response rating: 2
soybean; [5]
  Soybean plant response rating: 0
soybean; [6]
  Plant response rating, Soybean: 2
soybean; [7]
  Soybean plant response rating: 3
Wild oat; [8]
  Wild oats plant response rating: 0
Wild oat; [2]
  Wild oats plant response rating (0 to 10 scale): 0
Wild oat; [3]
  Wild oats plant response rating: 0
Wild oat; [4]
  Wild oats plant response rating: 2
Wild oat; [6]
  Plant response rating, Wild oats: 0
Wild oat; [7]
  Wild oats plant response rating: 2
